Key:
leukocyte esterase (LE) = experiment: Internally calibrated electrochemical continuous enzyme assay (ICECEA) of LE with ester substrate coupled to alcohol oxidase; format: biochemical, human; conditions: pH 7.40 PBS
Description: The original suspension of human leukocytes was diluted 10 times with a pH 7.40 0.050 M phosphate buffer saline (PBS, 154 mM NaCl) solution that contained 10 vol. % DMSO and left for 10 min to lyse the leukocytes chemically. The suspension was then sonicated for 30 s (Q125 Qsonica, 20% power) to complete the lysing process. The sonication was done in 5 s intervals with 5 s rest cycles to minimize the enzyme deactivation due to solution overheating. The lysate was centrifuged at 10000×g for 5 min, and the supernatant was transferred to a 1.70-mL microcentrifuge tube (Corning, N.Y.) and stored in a freezer at −20° C. when not in use.
Assays. The assays of LE were conducted at a N-CNT electrode by following the protocol of internally calibrated electrochemical continuous enzyme assay (ICECEA) (Zhang et. al., M.; Anal. Chem. 2013, 85, 6026-6032; Bekhit et. al., Anal. Chem. 2019, 91, 3163-3169).
(§1) The assay solution (5.00 mL) was made of pH 7.40 PBS containing both methyl pyruvate (MP) and alcohol oxidase (AOx). The current flowing through a N-CNT electrode at −0.20 V was measured continuously while a stirred assay solution was sequentially spiked with three 50-μL calibrating aliquots of H2O2 and one 50-μL aliquot of LE. This produced an ICECEA amperogram with the three current steps providing a calibration slope CS and an ascending linear current segment having an assay slope AS. The ICECEA amperograms shown were shortened to display only the linear portion of ascending current segment.
The AS and CS slopes were used to calculate the unit U of the enzymatic activity of LE:
By definition, one unit (U) of activity was equal to the amount of LE that consumed 1.0 micromole of MP per 1.0 min in a pH 7.40 PBS solution at room temperature (21° C.).
Kinetic Testing. The hypothesis formulated above was tested first by determining the kinetics of reaction 1. To ensure that the reaction was rate-limiting, the excess of AOx (25 mU) over LE (3 mU) was used. In addition, the concentration of H2O2 was kept within a linear range of calibration plot (0.50-40 μM) to avoid the non-linearity of electrode response to H2O2 from affecting kinetic measurements.
Assay of LE. The analytical merit of the coupling of reactions 1 and 2 via methanol was evaluated by using the MP to assay LE in PBS samples. To conduct the assay under the zero-order kinetics, the high concentration of MP was selected (88 μM, >10Km).
Control Experiments with Small Esters Other Than Methyl Pyruvate. […] The data in FIG. 7 underline the uniqueness of the methyl pyruvate-based method for the quantification of LE as a biomarker of infection.

[1] = Non-enzymatic hydrolysis in assay solution (steady current steps before LE addition); format: physicochemical; conditions: pH 7.40 PBS assay solution, <200 s
Description: as §1
The slope of current segments at >200 s increased with the concentration of MP in a solution.

Solubility in water = format: physicochemical
[2] = 1.4 nM LE, 25 mU AOx, 1-40 μM MP, Michaelis-Menten fit, RSD<10%

specificity constant kcatKm^−1 (leukocyte esterase (LE); [2]): 2.3e+06 M⁻¹ s⁻¹ | turnover number kcat (leukocyte esterase (LE); [2]): 15 s⁻¹ | recognition of ester by LE as substrate (ascending current segment after LE addition at 200 s) (leukocyte esterase (LE); 88 μM ester, 25 mU AO, N-CNT electrode −0.20 V, FIG. 7): produced the ascending current segment | average specific activity of LE reacting with MP (slope of LE activity vs. LE concentration) (leukocyte esterase (LE); 88 μM MP, 25 mU AOx, linear up to 260 μg L^−1 LE): 12 U mg^−1 | non-enzymatic hydrolysis [1]: slow on the experimental time scale | solubility in water (Solubility in water): good solubility in water
Structure (SMILES): COC(=O)C(C)=O [MP, Methyl pyruvate]
